Test system: 996289-038-R-J1-PDC spheroid viability
Assay: Anticancer human tumor 996289-038-R-J1-PDC patient-derived colon adenocarcinoma cell line growth inhibition [PI3K]
Details: spheroids with HUVEC and MSC; for IC50: curve of first compound; for viability, T/C: stronger effect = lower value
Procedure, shortened: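 High-throughput combination screen: PI3K inhibitors crossed with targeted small molecules on complex spheroids of tumor cells, HUVEC and MSCs at 37 degrees C, 5% CO2. Top concentration was at or near clinical Cmax (otherwise 10 microM), with half-log decrements.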

[1] = second compound 0.00316 µM, first compound 0.000316 µM
[2] = second compound 0.00316 µM, first compound 0.001 µM
[3] = second compound 0.00316 µM, first compound 0.00316 µM
[4] = second compound 0.00316 µM, first compound 0.01 µM
[5] = second compound 0.00316 µM, first compound 0.0316 µM
[6] = second compound 0.00316 µM, first compound 0.1 µM
[7] = second compound 0.01 µM, first compound 0.000316 µM
[8] = second compound 0.01 µM, first compound 0.001 µM
[9] = second compound 0.01 µM, first compound 0.00316 µM
[10] = second compound 0.01 µM, first compound 0.01 µM
[11] = second compound 0.01 µM, first compound 0.0316 µM
[12] = second compound 0.01 µM, first compound 0.1 µM
[13] = second compound 0.0316 µM, first compound 0.000316 µM
[14] = second compound 0.0316 µM, first compound 0.001 µM
[15] = second compound 0.0316 µM, first compound 0.00316 µM
[16] = second compound 0.0316 µM, first compound 0.01 µM
[17] = second compound 0.0316 µM, first compound 0.0316 µM
[18] = second compound 0.0316 µM, first compound 0.1 µM
[19] = second compound 0.1 µM, first compound 0.000316 µM
[20] = second compound 0.1 µM, first compound 0.001 µM
[21] = second compound 0.1 µM, first compound 0.00316 µM
[22] = second compound 0.1 µM, first compound 0.01 µM
[23] = second compound 0.1 µM, first compound 0.0316 µM
[24] = second compound 0.1 µM, first compound 0.1 µM
[25] = second compound 0.316 µM, first compound 0.000316 µM
[26] = second compound 0.316 µM, first compound 0.001 µM
[27] = second compound 0.316 µM, first compound 0.00316 µM
[28] = second compound 0.316 µM, first compound 0.01 µM
[29] = second compound 0.316 µM, first compound 0.0316 µM
[30] = second compound 0.316 µM, first compound 0.1 µM
[31] = second compound 1 µM, first compound 0.000316 µM
[32] = second compound 1 µM, first compound 0.001 µM
[33] = second compound 1 µM, first compound 0.00316 µM
[34] = second compound 1 µM, first compound 0.01 µM
[35] = second compound 1 µM, first compound 0.0316 µM
[36] = second compound 1 µM, first compound 0.1 µM
[37] = second compound 3.16 µM, first compound 0.000316 µM
[38] = second compound 3.16 µM, first compound 0.001 µM
[39] = second compound 3.16 µM, first compound 0.00316 µM
[40] = second compound 3.16 µM, first compound 0.01 µM
[41] = second compound 3.16 µM, first compound 0.0316 µM
[42] = second compound 3.16 µM, first compound 0.1 µM
[43] = second compound 10 µM, first compound 0.000316 µM
[44] = second compound 10 µM, first compound 0.001 µM
[45] = second compound 10 µM, first compound 0.00316 µM
[46] = second compound 10 µM, first compound 0.01 µM
[47] = second compound 10 µM, first compound 0.0316 µM
[48] = second compound 10 µM, first compound 0.1 µM
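Note: spheroids exposed to compounds for seven days before viability read.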
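Throughout, for viability, T/C: luminescence used as a proxy for viable cell amount; percent viability relative to DMSO vehicle control as 100%.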

Structure (SMILES): CC(C)n1nc(-c2ccc3oc(N)nc3c2)c2c(N)ncnc21 + CC(Nc1ccc2c(c1)OCCn1cc(N3C(=O)OCC3C(F)F)nc1-2)C(N)=O
- IC50 (second compound 0.00316 µM): 51.2 nM
- IC50 (second compound 0.01 µM): 46.1 nM
- IC50 (second compound 0.0316 µM): 31.4 nM
- IC50 (second compound 0.1 µM): 23.4 nM
- IC50 (second compound 0.316 µM): 8.43 nM
- IC50 (second compound 1 µM): 5.5 nM
- viability, T/C [1]: 95.9%
- viability, T/C [2]: 82.8%
- viability, T/C [3]: 90.5%
- viability, T/C [4]: 81.1%
- viability, T/C [5]: 64.5%
- viability, T/C [6]: 29.7%
- viability, T/C [7]: 94.8%
- viability, T/C [8]: 93.2%
- viability, T/C [9]: 84.6%
- viability, T/C [10]: 75.9%
- viability, T/C [11]: 62.4%
- viability, T/C [12]: 28.5%
- viability, T/C [13]: 100%
- viability, T/C [14]: 95.6%
- viability, T/C [15]: 79.1%
- viability, T/C [16]: 63.2%
- viability, T/C [17]: 54.7%
- viability, T/C [18]: 29.1%
- viability, T/C [19]: 85%
- viability, T/C [20]: 75.3%
- viability, T/C [21]: 67.8%
- viability, T/C [22]: 62%
- viability, T/C [23]: 48.5%
- viability, T/C [24]: 23.4%
- viability, T/C [25]: 64%
- viability, T/C [26]: 67.8%
- viability, T/C [27]: 57.2%
- viability, T/C [28]: 43.9%
- viability, T/C [29]: 39.8%
- viability, T/C [30]: 17.1%
- viability, T/C [31]: 52.3%
- viability, T/C [32]: 60.9%
- viability, T/C [33]: 57.2%
- viability, T/C [34]: 41.6%
- viability, T/C [35]: 33.7%
- viability, T/C [36]: 16%

Structure (SMILES): Cn1ncnc1[C@H]1c2n[nH]c(=O)c3cc(F)cc(c23)N[C@@H]1c1ccc(F)cc1 + CC(Nc1ncnc2nc[nH]c12)c1cc2cccc(Cl)c2c(=O)n1-c1ccccc1
- IC50 (second compound 0.0316 µM): > 100 nM
- IC50 (second compound 0.1 µM): > 100 nM
- IC50 (second compound 0.316 µM): > 100 nM
- IC50 (second compound 1 µM): > 100 nM
- IC50 (second compound 3.16 µM): > 100 nM
- IC50 (second compound 10 µM): > 100 nM
- viability, T/C [13]: 97.1%
- viability, T/C [14]: 99.7%
- viability, T/C [15]: 107%
- viability, T/C [16]: 104%
- viability, T/C [17]: 111%
- viability, T/C [18]: 94.3%
- viability, T/C [19]: 107%
- viability, T/C [20]: 98.4%
- viability, T/C [21]: 96.1%
- viability, T/C [22]: 96.3%
- viability, T/C [23]: 122%
- viability, T/C [24]: 96.4%
- viability, T/C [25]: 93.9%
- viability, T/C [26]: 102%
- viability, T/C [27]: 110%
- viability, T/C [28]: 100%
- viability, T/C [29]: 109%
- viability, T/C [30]: 89.8%
- viability, T/C [31]: 95.1%
- viability, T/C [32]: 94.3%
- viability, T/C [33]: 103%
- viability, T/C [34]: 96.3%
- viability, T/C [35]: 103%
- viability, T/C [36]: 95.2%
- viability, T/C [37]: 90.4%
- viability, T/C [38]: 109%
- viability, T/C [39]: 94.5%
- viability, T/C [40]: 96.3%
- viability, T/C [41]: 95.4%
- viability, T/C [42]: 94.8%
- viability, T/C [43]: 90%
- viability, T/C [44]: 90.5%
- viability, T/C [45]: 96.8%
- viability, T/C [46]: 81.5%
- viability, T/C [47]: 94.6%
- viability, T/C [48]: 77.8%

Structure (SMILES): Cn1ncnc1[C@H]1c2n[nH]c(=O)c3cc(F)cc(c23)N[C@@H]1c1ccc(F)cc1 + COc1c(OCCCN2CCOCC2)ccc2c3n(c(=NC(=O)c4cnc(N)nc4)nc12)CCN3
- IC50 (second compound 0.00316 µM): > 100 nM
- IC50 (second compound 0.01 µM): > 100 nM
- IC50 (second compound 0.0316 µM): > 100 nM
- IC50 (second compound 0.1 µM): > 100 nM
- IC50 (second compound 0.316 µM): < 0.316 nM
- IC50 (second compound 1 µM): < 0.316 nM
- viability, T/C [1]: 110%
- viability, T/C [2]: 106%
- viability, T/C [3]: 102%
- viability, T/C [4]: 112%
- viability, T/C [5]: 103%
- viability, T/C [6]: 103%
- viability, T/C [7]: 97.7%
- viability, T/C [8]: 92.6%
- viability, T/C [9]: 95.3%
- viability, T/C [10]: 100%
- viability, T/C [11]: 97.3%
- viability, T/C [12]: 100%
- viability, T/C [13]: 87.8%
- viability, T/C [14]: 91.3%
- viability, T/C [15]: 80.3%
- viability, T/C [16]: 79.4%
- viability, T/C [17]: 97.7%
- viability, T/C [18]: 70.8%
- viability, T/C [19]: 69.4%
- viability, T/C [20]: 68.4%
- viability, T/C [21]: 67.4%
- viability, T/C [22]: 63.3%
- viability, T/C [23]: 64.6%
- viability, T/C [24]: 48.6%
- viability, T/C [25]: 41.8%
- viability, T/C [26]: 39.1%
- viability, T/C [27]: 46.8%
- viability, T/C [28]: 35.3%
- viability, T/C [29]: 44.2%
- viability, T/C [30]: 43.8%
- viability, T/C [31]: 22.6%
- viability, T/C [32]: 22.6%
- viability, T/C [33]: 23.1%
- viability, T/C [34]: 18.3%
- viability, T/C [35]: 25.7%
- viability, T/C [36]: 20.8%

Structure (SMILES): CC(C)n1nc(-c2ccc3oc(N)nc3c2)c2c(N)ncnc21 + Cc1nc(NC(=O)N2CCCC2C(N)=O)sc1-c1ccnc(C(C)(C)C(F)(F)F)c1
- IC50 (second compound 0.0316 µM): 54.8 nM
- IC50 (second compound 0.1 µM): 27.3 nM
- IC50 (second compound 0.316 µM): 41.5 nM
- IC50 (second compound 1 µM): 26 nM
- IC50 (second compound 3.16 µM): 2.54 nM
- IC50 (second compound 10 µM): < 0.316 nM
- viability, T/C [13]: 97.1%
- viability, T/C [14]: 83.5%
- viability, T/C [15]: 89.2%
- viability, T/C [16]: 79%
- viability, T/C [17]: 66.5%
- viability, T/C [18]: 33.1%
- viability, T/C [19]: 100%
- viability, T/C [20]: 83.2%
- viability, T/C [21]: 78.4%
- viability, T/C [22]: 61.7%
- viability, T/C [23]: 54.5%
- viability, T/C [24]: 25.4%
- viability, T/C [25]: 77.7%
- viability, T/C [26]: 86.4%
- viability, T/C [27]: 93%
- viability, T/C [28]: 58.9%
- viability, T/C [29]: 63.3%
- viability, T/C [30]: 24.1%
- viability, T/C [31]: 72.5%
- viability, T/C [32]: 79.9%
- viability, T/C [33]: 66.5%
- viability, T/C [34]: 59.5%
- viability, T/C [35]: 49.8%
- viability, T/C [36]: 22.3%
- viability, T/C [37]: 63.9%
- viability, T/C [38]: 53%
- viability, T/C [39]: 48.5%
- viability, T/C [40]: 40.6%
- viability, T/C [41]: 32.3%
- viability, T/C [42]: 17.2%
- viability, T/C [43]: 43.9%
- viability, T/C [44]: 40.8%
- viability, T/C [45]: 40.4%
- viability, T/C [46]: 35.5%
- viability, T/C [47]: 25.2%
- viability, T/C [48]: 14.2%

From PubChem BioAssay AID1963965 (Molecular Pharmacology Branch, DTP, NCI, 2024)
